Results published in ChEMBL document CHEMBL3885861, “Open TG-GATES”.

Species on record: Rattus norvegicus
Test: Open TG-GATES - Regimen: Daily Repeat
Type: toxicity, organism-based, Sprague-Dawley
Set-up: regimen Daily Repeat, gender Male, age 6 weeks
Details: in vivo, po, route gavage; for TBIL / TC / TG / TP / gamma-GTP / ALP / ALT / AST / BUN / CRE / Ca / Cl / DBIL / K / LDH / Na / PL / RALB / IP: tissue Plasma; for APTT / Bas / Eos / Fbg / Hb / Ht / Lym / MCH / MCHC / MCV / PT / Plat / RBC / Ret / WBC / Mono / Neu: tissue Blood; for LIVER: tissue Liver
[1] = 1 mg/kg, […], dose level Low, time 28 day
[2] = 3 mg/kg, 72 h, dose level Middle, time 3 day
[3] = 3 mg/kg, 72 h, tissue Kidney, dose level Middle, time 3 day
[4] = 3 mg/kg, […], dose level Middle, time 14 day
[5] = 3 mg/kg, […], dose level Middle, time 28 day
[6] = 3 mg/kg, […], tissue Kidney, dose level Middle, time 14 day
[7] = 3 mg/kg, […], tissue Kidney, dose level Middle, time 28 day
[8] = 10 mg/kg, 72 h, dose level High, time 3 day
[9] = 10 mg/kg, 72 h, tissue Kidney, dose level High, time 3 day
[10] = 10 mg/kg, […], dose level High, time 14 day
[11] = 10 mg/kg, […], dose level High, time 28 day
[12] = 10 mg/kg, […], tissue Kidney, dose level High, time 14 day
[13] = 10 mg/kg, […], tissue Kidney, dose level High, time 28 day

## C#C[C@]1(O)CC[C@H]2[C@@H]3CCc4cc(O)ccc4[C@H]3CC[C@@]21C [ETHINYL ESTRADIOL]
[1]
  TBIL: 0.1 mg/dL
  TC: 50.6 mg/dL
  TG: 82 mg/dL
  TP: 6.8 g/dL
  gamma-GTP: 3.2 IU/L
[2]
  TERMINAL_BW: 201.7 g
  APTT: 22.6 s
  Bas: 0%
  Eos: 1%
  Fbg: 302.4 mg/dL
  Hb: 13.7 g/dL
  Ht: 40.3%
  Lym: 76.4%
  MCH: 20.9 pg
  MCHC: 34.1%
  MCV: 61.5 fL
  PT: 13.5 s
  Plat: 106.8 x10_4/uL
  RBC: 656.8 x10_4/ul
  Ret: 4.4%
  WBC: 75.4 x10_2/uL
  LIVER: 12.6 g
  ALP: 2898.2 IU/L
  ALT: 40.8 IU/L
  AST: 66.2 IU/L
  BUN: 9.8 mg/dL
  CRE: 0.2 mg/dL
  Ca: 10.5 mg/dL
  Cl: 108.2 meq/L
  DBIL: 0.038 mg/dL
  K: 4 meq/L
  LDH: 77.8 IU/L
  Na: 143.6 meq/L
  PL: 74.8 mg/dL
  RALB: 2.6 g/dL
  TBIL: 0.07 mg/dL
  TC: 24.8 mg/dL
  TG: 55.6 mg/dL
  TP: 5.6 g/dL
[3]
  KIDNEY_L: 0.9 g
  KIDNEY_R: 1 g
[4]
  TERMINAL_BW: 223.6 g
  APTT: 19.5 s
  Bas: 0%
  Eos: 1%
  Fbg: 316.6 mg/dL
  Ht: 37.1%
  Lym: 76.2%
  MCH: 20.2 pg
  MCHC: 36%
  MCV: 56.2 fL
  Mono: 2.2%
  Neu: 20%
  PT: 13.6 s
  Plat: 149.1 x10_4/uL
  RBC: 659.8 x10_4/ul
  Ret: 2.4%
  WBC: 96.9 x10_2/uL
  LIVER: 15.2 g
  ALP: 2422.2 IU/L
  ALT: 39.2 IU/L
  AST: 55.4 IU/L
  BUN: 16.4 mg/dL
  CRE: 0.3 mg/dL
  Cl: 105.4 meq/L
  DBIL: 0.088 mg/dL
  IP: 6.2 mg/dL
  LDH: 88.2 IU/L
  Na: 143.8 meq/L
  PL: 126.8 mg/dL
  RALB: 3 g/dL
  TBIL: 0.2 mg/dL
  TC: 40.6 mg/dL
  TG: 76.4 mg/dL
  TP: 6.8 g/dL
  gamma-GTP: 4.4 IU/L
[5]
  TERMINAL_BW: 227.7 g
  APTT: 24.1 s
  Bas: 0%
  Fbg: 301 mg/dL
  Ht: 37.2%
  Lym: 77.6%
  MCH: 18.7 pg
  MCHC: 36.1%
  MCV: 51.7 fL
  Mono: 2.2%
  PT: 14 s
  Plat: 110.2 x10_4/uL
  RBC: 719 x10_4/ul
  Ret: 2%
  WBC: 69.4 x10_2/uL
  LIVER: 13.8 g
  ALP: 1503.2 IU/L
  ALT: 40.6 IU/L
  AST: 50.6 IU/L
  BUN: 14.8 mg/dL
  CRE: 0.2 mg/dL
  Ca: 10.8 mg/dL
  Cl: 105.2 meq/L
  DBIL: 0.062 mg/dL
  IP: 4.9 mg/dL
  K: 3.9 meq/L
  LDH: 51.4 IU/L
  Na: 143.6 meq/L
  PL: 134 mg/dL
  RALB: 3.1 g/dL
  TBIL: 0.1 mg/dL
  TC: 46.8 mg/dL
  TG: 59.2 mg/dL
  TP: 6.9 g/dL
  gamma-GTP: 9.8 IU/L
[6]
  KIDNEY_L: 1 g
  KIDNEY_R: 1 g
  KIDNEY_TOTAL: 2 g
[7]
  KIDNEY_L: 1 g
  KIDNEY_R: 1 g
[8]
  TERMINAL_BW: 202.8 g
  APTT: 17.7 s
  Bas: 0.2%
  Eos: 1%
  Fbg: 289.4 mg/dL
  Hb: 13.2 g/dL
  Ht: 38.8%
  Lym: 81.8%
  MCHC: 34.2%
  MCV: 62.2 fL
  Mono: 4.8%
  Neu: 12%
  Plat: 114.3 x10_4/uL
  RBC: 623.8 x10_4/ul
  Ret: 4.8%
  WBC: 91.7 x10_2/uL
  LIVER: 13.9 g
  ALP: 2718.6 IU/L
  ALT: 40.8 IU/L
  AST: 63 IU/L
  BUN: 9.4 mg/dL
  CRE: 0.2 mg/dL
  Ca: 10.3 mg/dL
  Cl: 107.8 meq/L
  DBIL: 0.044 mg/dL
  IP: 7.8 mg/dL
  K: 4.3 meq/L
  LDH: 76.8 IU/L
  PL: 65.8 mg/dL
  RALB: 2.5 g/dL
  TBIL: 0.082 mg/dL
  TC: 23.2 mg/dL
  TG: 30.2 mg/dL
  TP: 5.3 g/dL
  gamma-GTP: 1 IU/L
[9]
  KIDNEY_L: 1 g
  KIDNEY_R: 1 g
[10]
  TERMINAL_BW: 202.6 g
  APTT: 20.6 s
  Bas: 0%
  Eos: 1%
  Fbg: 254 mg/dL
  Hb: 13.9 g/dL
  Ht: 39%
  Lym: 78.2%
  MCH: 20.6 pg
  MCHC: 35.7%
  MCV: 57.8 fL
  Mono: 2.6%
  PT: 14 s
  Plat: 122.3 x10_4/uL
  RBC: 675.2 x10_4/ul
  Ret: 0.9%
  WBC: 71.4 x10_2/uL
  LIVER: 14.2 g
  ALP: 2093.8 IU/L
  AST: 58.4 IU/L
  BUN: 15.4 mg/dL
  CRE: 0.2 mg/dL
  Cl: 104.6 meq/L
  DBIL: 0.074 mg/dL
  IP: 6.4 mg/dL
  LDH: 125.2 IU/L
  Na: 144.8 meq/L
  PL: 89.8 mg/dL
  RALB: 3.1 g/dL
  TBIL: 0.1 mg/dL
  TC: 28.4 mg/dL
  TG: 30.4 mg/dL
  TP: 7 g/dL
  gamma-GTP: 12.2 IU/L
[11]
  TERMINAL_BW: 211.1 g
  APTT: 24.9 s
  Bas: 0%
  Eos: 0.6%
  Fbg: 258.6 mg/dL
  Hb: 12.4 g/dL
  Ht: 33.9%
  Lym: 78.6%
  MCH: 19 pg
  MCHC: 36.6%
  MCV: 51.7 fL
  Mono: 2%
  Neu: 18.2%
  Plat: 120.4 x10_4/uL
  RBC: 656.4 x10_4/ul
  Ret: 1.9%
  WBC: 61.3 x10_2/uL
  LIVER: 15.1 g
  ALP: 1817.4 IU/L
  ALT: 61.6 IU/L
  BUN: 16.4 mg/dL
  CRE: 0.2 mg/dL
  Cl: 104.6 meq/L
  DBIL: 0.1 mg/dL
  IP: 5.8 mg/dL
  LDH: 94.4 IU/L
  Na: 145 meq/L
  PL: 118.6 mg/dL
  RALB: 3.3 g/dL
  TBIL: 0.3 mg/dL
  TC: 40 mg/dL
  TG: 60.2 mg/dL
  TP: 7.3 g/dL
  gamma-GTP: 19 IU/L
[12]
  KIDNEY_L: 1 g
  KIDNEY_R: 1 g
[13]
  KIDNEY_L: 1 g
  KIDNEY_R: 1 g
